Data on 14 compounds can be found in patent US20220354835A1, “COMPOUNDS FOR DEGRADING TAU PROTEIN AGGREGATES AND USES THEREOF” (Aprinoia Therapeutics Limited, priority 2019, published 2022).

Test [1] concerns the target T1, Tau aggregates in P301L-Tau-FL-GFP HEK293 cells (Homo sapiens, UniProt P10636, P618L).
T1 construct: express full-length human tau T40 (2N4R) carrying the P301L mutation with a GFP tag; expressed in transfected cells
The experiment in a line: Tau degradation assay (APNmAb005 ELISA-based Tau aggregation assay). The test is classed as cell-based. Particulars: for inhibition at 1 µM: 1 μM of compound, 24 hours, P301L-Tau-FL-GFP HEK293 cells seeded with rTg4510 brain lysate, read-out: Activity (reduction of tau aggregates). As for the experimental part:
(A). Cell-based model of Tau inclusion formation: Six month old rTg4510 mouse brain lysates were used as the source of tau seeds, prepared as described in Example 26 above. P301L-Tau-FL-GFP HEK293 cells represent HEK293 cells express full-length human tau T40 (2N4R) carrying the P301L mutation with a GFP tag (P301L-Tau-FL-GFP). 1×10^6 of P301L-Tau-FL-GFP HEK293 cells were cultured on a 6-well plate in culture medium containing DMEM/F-12 (Gibco) supplemented with 10% fetal bovine serum (FBS) (Gibco), 1% Penicillin-Streptomycin (Gibco) and 0.5 mg/ml geneticin (Thermo Fisher Scientific) for 24 hours to reach 70-90% confluency, indicating the cells were ready for transfection. 50 μg of 6-month-old rTg4510 mouse brain lysate was diluted in 400 μL of serum free medium and mixed with 16 μL of lipofectamine 3000 reagent (Thermo Fisher Scientific) diluted in 400 μl of serum free medium. A solution mixture of rTg4510 brain lysate and lipofectamine 3000 was incubated at room temperature for 25 min. The culture media were removed, and then a solution mixture of rTg4510 lysate and lipofectamine 3000 was added to the cells for transfection. The solution mixture was incubated at room temperature for five hours, followed by medium change to 10% fetal bovine serum (FBS). After two-day incubation, Tau aggregates (Tau spots) were induced and images were acquired by ImageXpress Micro Confocal high-content imaging system (Molecular Devices) as described in Example 52 above. Analysis was performed by two customized modules in MetaXpress software (Molecular Devices) for aggregated tau analysis. Output included cell numbers, numbers of tau spots, average intensity of tau spots, and average size of tau spots.
(B). Compound treatment: 100 μL of 3×10^4 cells comprising Tau aggregates, prepared as described above in step (A), were plated on a 96-well plate coated with poly-D-lysine (BD Biosciences) and cultured for 24 hours. Compounds to be tested were dissolved in culture medium containing 0.1% DMSO. Each of test compounds in the concentration of 1, 0.2 and 0.04 μM was added to the cells comprising Tau aggregates and incubated at 37° C. for 24 hours. After that, culture medium was removed, cells were washed with PBS solution and then lysed using 30 μL of lysis buffer (PBS containing 0.3% Triton X-100 and 400 mM NaCl) for one hour at 4° C., and then cell lysate was diluted by 170 μl of PBS containing 400 mM NaCl. Cell lysate was filtrated by a […] filtration plate (Pall) and applied for Tau aggregation assay.
(C). Control cell lysate: control cell lysate was collected from non-seeded cells.
(D). ELISA-based Tau aggregation assay: APNmAb005 ELISA kit for Tau aggregation assay was designed and developed to detect abnormal tau aggregates in buffered solution or cell lysate by using anti-Tau APNmab005 as capture and detection antibody. This antibody is a highly specific antibody bound to human tau aggregates accumulated in mammalian cells. APNmAb005 is recited in PCT Patent Application No. PCT/M2020/057415, filed Aug. 5, 2020, which is incorporated herein by reference.
0.15 μg of APNmAb005 in 100 mM sodium carbonate buffer (pH 9.6) was coated on a high-binding polystyrene 96-well microplate (Greiner Bio-One) at 4° C. overnight. The microplate was washed with PBS followed by treatment with Intercept (PBS) blocking buffer (LI-COR) at room temperature for 2 hours. After that, the microplate was washed with PBS, and then the cell lysate with compound treatment, prepared as described above in step (C), was added into each well of the microplate and incubated at room temperature for 2 hours. The microplate was washed with PBS and then incubated with HRP-conjugated secondary antibody APNmAb005 at room temperature for 3 hours. HRP-conjugated secondary antibody APNmAb005 was prepared using HRP conjugation kit (Abcam,ab102890). The microplate was then washed with PBS and incubated with 100 μL of horseradish peroxidase (HRP) substrate at room temperature. […]

The target of test [2] is T2, heparin-induced aggregated tau (aTau), full-length 2N4R human Tau (Homo sapiens, UniProt P10636).
T2 construct: transformed with a full-length 2N4R tau expression plasmid; made in house; host or cells: E. coli BL21
The experiment in a line: PBB5 competition assay. Particulars: 0.12 μM aTau, 0.1 μM PBB5, compound up to 10 μM; read-out: Competition Assay with PBB5: Bmax (%). The test is classed as binding. As for the experimental part: (A) Expression and purification of human Tau: 1 mM IPTG (Sangon Biotech, Cat. No A100487) was used to induce production of tau by bacteria (BL21, Invitrogen, Cat. No C600003) transformed with a full-length 2N4R tau expression plasmid. After 3 hours, cell pellet was resuspended in lysis buffer (100 mM PIPES, 1 mM EGTA, 1 mM MgSO4, pH 6.8) and lysed by sonication followed by centrifugation (15,000 rpm, 15 min, 4° C.). The supernatant was then placed in a boiling water bath for 20 min, followed by centrifugation (15,000 rpm, 15 min, 4° C.). Supernatant was loaded onto a Q-Sepharose® Fast Flow column (GE healthcare, Cat. No 17-0510-01), the flow-through fraction was loaded onto an SP-Sepharose® Fast Flow column (GE healthcare, Cat. No 17-0729-01), and tau protein was eluted with elution buffer (100 mM PIPES, 1 M NaCl, 1 mM EGTA, 1 mM MgSO4, 0.2 M NaCl, pH 6.8). Collected fractions of tau-containing eluates were pooled, concentrated and dialyzed against HEPES buffer (25 mM HEPES, 0.1 mM EDTA, 0.5 mM DTT, 100 mM NaCl, pH 7.2) and stored at −80° C. in small aliquots until use. Protein concentration was determined by UV absorption.
(B) Preparation of heparin-induced aggregated tau (aTau): 2 μM of tau prepared in 30 mM Tris-HCl, pH 7.5 buffer was incubated in tube with 15 μM heparin (Sigma, Cat. No H3149) at 37° C. for 24 hours.
(E) PBBS competition assay: 2 μM of aTau was diluted to 0.12 μM by […] (pH 6.8) and then incubated with 0.1 μM 2-(4-(2-(methylamino)pyridine-5-yl)-1,3-butadiene-1-yl)benzothiazole-6-ol (PBB5) and serially diluted compound (three-fold serial dilution, from 10 to 0.00017 μM) in a 96-well plate (Corning, Cat. No 3573) at 37° C. for 1 hour. Fluorescence intensity (excitation/emission=530/690 nm) of PBB5 was read by microplate spectrometer (EnSpire 2300, PerkinElmer). Percentage of competition was calculated using the following equation: (Max−well of compound alone)/(Max−Min)*100%, where Max=(Tau+PBB5) signals−(buffer+PBB5) signals; and Min=(buffer+PBB5) signals−(buffer+PBB5) signals.
The IC50 value of each compound was calculated with GraphPad Prism software using the “4 Parameter Logistic Model or Sigmoidal Dose-Response Model”:
Y=Bottom+(Top−Bottom)/(1+(IC50/×)^HillSlope)

T1 sequence (P10636 1-441 isoform P10636-8 P301L): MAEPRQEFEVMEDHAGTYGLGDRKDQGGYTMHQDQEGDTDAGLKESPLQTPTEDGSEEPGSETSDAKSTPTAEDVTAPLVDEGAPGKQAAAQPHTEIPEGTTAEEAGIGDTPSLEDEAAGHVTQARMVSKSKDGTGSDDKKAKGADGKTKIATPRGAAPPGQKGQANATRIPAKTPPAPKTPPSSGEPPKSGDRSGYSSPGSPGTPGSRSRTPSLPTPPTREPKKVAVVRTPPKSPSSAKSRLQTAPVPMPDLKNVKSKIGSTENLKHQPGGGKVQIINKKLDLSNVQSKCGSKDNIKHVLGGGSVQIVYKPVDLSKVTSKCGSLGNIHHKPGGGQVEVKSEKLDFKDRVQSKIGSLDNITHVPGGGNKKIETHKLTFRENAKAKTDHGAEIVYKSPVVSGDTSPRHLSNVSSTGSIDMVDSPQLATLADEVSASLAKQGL
T2 sequence (P10636 1-441 isoform P10636-8): as the sequence (P10636 1-441 isoform P10636-8 P301L) above, with L301P counted along it

In the case of `COc1ccc2nc(-c3ccc(-c4ccnc(NCCOCCOc5ccc6c(c5)CN(C5CCC(=O)NC5=O)C6=O)c4)cc3)cn2c1` (stereo not drawn) [Compound 162640, 3-[6-[2-[2-[[4-[4-(6-methoxyimidazo[1,2-a]pyridin-2-yl)phenyl]pyridin-2-yl]amino]ethoxy]ethoxy]-3-oxidanylidene-1H-isoindol-2-yl]piperidine-2,6-dione], the inhibition at 1 µM in test [1] was in the range of 10 to 20%. For the compound `CN(C)c1ccc(-c2ccc(-c3cn4cc(OCCOCCN5C(=O)CCC(N6C(=O)c7ccc(O)cc7C6=O)C5=O)ccc4n3)cc2)c(F)n1` (stereo not drawn) [Compound 160570, 2-[1-[2-[2-[2-[4-[6-(dimethylamino)-2-fluoranyl-pyridin-3-yl]phenyl]imidazo[1,2-a]pyridin-6-yl]oxyethoxy]ethyl]-2,6-bis(oxidanylidene)piperidin-3-yl]-5-oxidanyl-isoindole-1,3-dione], in test [2], the Emax came to 100%. As to `COc1ccc2nc(-c3ccc(-c4ccc(NCCOCCOc5ccc6c(c5)C(=O)N(C5CCC(=O)NC5=O)C6=O)nc4F)cc3)cn2c1` (stereo not drawn) [Compound 161215, 2-[2,6-bis(oxo)piperidin-3-yl]-5-[2-[2-[[6-fluoro-5-[4-(6-methoxyimidazo[1,2-a]pyridin-2-yl)phenyl]pyridin-2-yl]amino]ethoxy]ethoxy]isoindole-1,3-dione], the inhibition at 1 µM in test [1] is 10 to 20%. As to `CN(C)c1ccc(-c2ccc(-c3nc4ccc(NCCOCCOCCOCCOc5ccc6c(c5)C(=O)N(C5CCC(=O)NC5=O)C6=O)cc4s3)cc2)cn1` (stereo not drawn) [Compound 160939, 2-[2,6-bis(oxo)piperidin-3-yl]-5-[2-[2-[2-[2-[[2-[4-[6-(dimethylamino)pyridin-3-yl]-phenyl]-1,3-benzothiazol-6-yl]amino]ethoxy]ethoxy]ethoxy]ethoxy]isoindole-1,3-dione], the inhibition at 1 µM in test [1] was under 10%. Turning to `CN(C)c1ccc2nc(-c3ccc(-c4ccc(NCCOCCOc5ccc6c(c5)CN(C5CCC(=O)NC5=O)C6=O)nc4)cc3C(F)(F)F)sc2c1` (stereo not drawn) [Compound 177031], the inhibition at 1 µM in test [1] was under 10%. Same read-out and setting: the same measure for `CN(C)c1ccc(-c2ccc(-c3nc4ccc(OCCOCCOc5ccc6c(c5)CN(C5CCC(=O)NC5=O)C6=O)cc4s3)c(C(F)(F)F)c2)cn1` (stereo not drawn) [Compound 162903]: 10 to 20%; for `CN(C)c1ccc(-c2ccc(-c3nc4ccc(OCCOCCOc5ccc6c(c5)CN(C5CCC(=O)NC5=O)C6=O)cc4o3)cc2)cn1` (stereo not drawn) [Compound 163365]: 10 to 20%. As to `CN(C)c1ccc(-c2ccc(-c3cn4cccc(OCCOCCOc5ccc6c(c5)CN(C5CCC(=O)NC5=O)C6=O)c4n3)cc2)cn1` (stereo not drawn) [Compound 162842], the “Optical Density (O.D.) 450 value decrease compared to vehicle (reduction of Tau aggregates)” value in test [1] (1 μM compound, APNmAb005 ELISA) came to 20%. Moreover, the inhibition at 1 µM in test [1] was over 20%. Turning to `CN(C)c1ccc(-c2ccc(-c3cn4cc(OCCOCCN5C(=O)CCC(N6C(=O)c7ccc(O)cc7C6=O)C5=O)ccc4n3)cc2)c(F)n1` (stereo not drawn) [Compound 170350], in test [1], the inhibition at 1 µM was 10 to 20%. As to `COc1ccc2nc(-c3ccc(-c4ccc(NCCOCCOCCOCCOCCOCCOc5ccc6c(c5)C(=O)N(C5CCC(=O)NC5=O)C6=O)nc4F)cc3)cn2c1` (stereo not drawn) [Compound 161409], the inhibition at 1 µM in test [1] is 10 to 20%. Consider `COc1ccc2nc(-c3ccc(-c4ccc(NCCOCCOc5cccc6c5C(=O)N(C5CCC(=O)NC5=O)C6=O)nc4)cc3)sc2c1` (stereo not drawn) [Compound 177038], for which the inhibition at 1 µM in test [1] is under 10%. On the same count and under the same terms, the same measure for `CN(C)c1ccc(-c2ccc(-c3nc4ccc(OCCOCCOc5ccc6c(c5)CN(C5CCC(=O)NC5=O)C6=O)cc4s3)cc2)cn1` (stereo not drawn) [Compound 163123]: 10 to 20%. For the compound `CN(C)c1ccc(-c2ccc(-c3nc4ccc(OCCOCCOCCOc5ccc6c(c5)CN(C5CCC(=O)NC5=O)C6=O)cc4s3)c(C(F)(F)F)c2)cn1` (stereo not drawn) [Compound 174251], the inhibition at 1 µM in test [1] is under 10%. With `CN(C)c1ccc2nc(-c3ccc(-c4ccc(NCCOCCN5C(=O)CCC(N6C(=O)c7ccc(O)cc7C6=O)C5=O)nc4)cc3)sc2c1` (stereo not drawn) [Compound 160703, 2-[1-[2-[2-[[5-[4-[6-(dimethylamino)-1,3-benzothiazol-2-yl]phenyl]pyridin-2-yl]amino]ethoxy]ethyl]-2,6-bis(oxidanylidene)piperidin-3-yl]-5-oxidanyl-isoindole-1,3-dione], in test [2], the Emax came out at 100%.
